These results are taken from patent US20200306333A1, “COMPOSITION FOR PREVENTING OR TREATING MUSCLE ATROPHY COMPRISING LYCII RADICIS CORTEX” (Industry-University Cooperation Foundation Hanyang …, priority 2019, published 2020).

Assay type in all cases: cell-based, mouse
Holding throughout (conditions): dexamethasone 1 μM

One experiment relates to C2C12 myotubes. Put plainly: Diameter (thickness) of C2C12 myotubes, dexamethasone-induced muscle atrophy. As to the method: C2C12 mouse myoblasts acquired from the Korean Collection for Type Cultures of the Korea Research Institute of Bioscience and Biotechnology were induced to divide for a total of 6 times (3 times×2 days). After the division was completed sufficiently, the C2C12 cells were seeded onto a 12-well plate and then divided for 2 days. As a division medium, HyClone™ DMEM/high glucose supplemented with 10% FBS (fetal bovine serum) and 1% penicillin was used.
When each well of the 12-well plate reached 90% confluency, the cells were treated with a differentiation medium (HyClone™ DMEM/high glucose supplemented with 2% HS (horse serum) and 1% penicillin). The differentiation medium was replaced every 2 days, and the treatment was performed for 6 days. Then, the differentiation-induced C2C12 myotubes were treated with HyClone™ supplemented with 1% penicillin for 24 hours and then subjected to the following experiment.
Dexamethasone induces muscle atrophy by inhibiting muscle synthesis and inducing protein degradation. […]
After treating the control groups and test groups for 48 hours in Example 2-2, the cells were imaged using the automated cell imaging system JuLi™ Stage and the thickness of the imaged cells was measured using the cell processing program Image J, with 50 cells per group.

The subject of the next experiment is MuRF-1. Put plainly: Western blotting of MuRF-1 in C2C12 myotubes. From the text: (§1) Dexamethasone induces muscle atrophy by inhibiting muscle synthesis and inducing protein degradation. The effect of preventing and improving muscle atrophy of the lycii radicis cortex extract was investigated by inducing muscle atrophy by treating the differentiation-induced C2C12 cells of Example 2-1 with dexamethasone and then treating the muscle atrophy-induced cells with the lycii radicis cortex extract. Detailed experimental conditions are as follows.
(§2) (1) Control: The differentiated C2C12 cells were treated only with DMEM/high glucose supplemented with 1% penicillin for 48 hours.
(§3) (2) Negative control: The C2C12 cells were treated with DMEM/high glucose supplemented with 1% penicillin and 1 μM dexamethasone for 48 hours.
(§4) (3) Control+lycii radicis cortex extract: The cells were treated with 30 μg/mL of the lycii radicis cortex extract for 48 hours under the same condition as the control of (1).
(§5) (4) Negative control+lycii radicis cortex extract: The cells were treated with 30 μg/mL of the lycii radicis cortex extract for 48 hours under the same condition as the negative control of (2). […]
Background: A western blot detects proteins with antibodies after separation by electrophoresis.

In a further experiment the test system is atrogin-1/MAFbx. Put plainly: Western blotting of atrogin-1/MAFbx in C2C12 myotubes.
Text: as §1, §2, §3, §4, §5

Consider `C[C@@H]1C[C@H]2[C@@H]3CCC4=CC(=O)C=C[C@]4(C)[C@@]3(F)[C@@H](O)C[C@]2(C)[C@@]1(O)C(=O)CO` [dexamethasone], for which the “Average thickness (μm) of 50 cells” value in the experiment on C2C12 myotubes (48 hours, C2C12 myotubes) stood at 7.5933 μm. Moreover, the “decrease in thickness as compared to the control group” value in the experiment with C2C12 myotubes (p<0.005) is 30.54%. In addition, the “increase of activity of MuRF-1 as compared to the control group” value with MuRF-1 turned out to be 3.513 fold. The “MuRF-1 vs. GAPDH” value with MuRF-1 (48 hours, Control = 100) was determined as 351.2904. In addition, in the experiment with atrogin-1/MAFbx, the “increase of activity of atrogin-1/MAFbx as compared to the control group” value was determined as 3.404 fold. Moreover, in the experiment on atrogin-1/MAFbx (48 hours, Control = 100), the “Atrogin-1/MAFbx vs. GAPDH” value was 340.3945.
